Assay results reported in patent US9877927B2, “Inhibitor of odor caused by Furaneol” (Kao Corporation, priority 2013, dated 2018).

Experiments:
olfactory receptor OR5K1 [1] = molecular target: T1, olfactory receptor OR5K1 (Homo sapiens, UniProt Q8NHB7); experiment: Antagonistic activity against the response of OR5K1 to Furaneol (luciferase assay); format: cell-based; details: Furaneol 3 mM, test substance 100 μM, HEK293 cells expressing OR5K1; vs Furaneol alone; read-out: Rate of inhibition of the response of OR5K1 to Furaneol
T1 construct: expressed in transfected cells; host or cells: HEK293
T1 sequence (Q8NHB7 1-308): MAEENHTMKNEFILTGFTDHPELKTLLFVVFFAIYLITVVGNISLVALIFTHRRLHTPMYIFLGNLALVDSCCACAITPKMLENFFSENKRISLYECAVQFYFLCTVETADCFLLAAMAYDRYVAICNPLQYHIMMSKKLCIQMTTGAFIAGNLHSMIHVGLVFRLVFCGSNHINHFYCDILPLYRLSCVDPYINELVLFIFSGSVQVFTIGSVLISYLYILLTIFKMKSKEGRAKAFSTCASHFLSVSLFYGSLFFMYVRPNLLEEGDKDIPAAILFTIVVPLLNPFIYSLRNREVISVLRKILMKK
Method: Furaneol (3 mM) and each test substance (100 μM) were added to HEK293 cells allowed to express the olfactory receptor OR5K1 by the same procedures as in Example 2. The response of the olfactory receptor was measured to evaluate change in receptor response caused by the addition of the test substance.
The rate of inhibition of the receptor response by the test substance was calculated as follows: firefly luciferase-derived luminescence intensity (Y) in the olfactory receptor OR5K1-expressing cells without Furaneol stimulation was subtracted from luminescence intensity (X) induced by stimulation with Furaneol alone to determine receptor activity (X−Y) based on the stimulation with Furaneol alone. Likewise, the luminescence intensity (Y) in the cells without Furaneol stimulation was subtracted from luminescence intensity (Z) induced by stimulation with the mixture of Furaneol and the test substance to determine receptor activity (Z−Y) in the presence of the test substance. The rate of reduction in the receptor activity (Z−Y) in the presence of the test substance with respect to the receptor activity (X−Y) based on the stimulation with Furaneol alone was calculated according to an expression shown below to determine the rate of inhibition of the receptor response by the test substance. In this assay, a plurality of independent duplicate experiments were performed. An average of the experiments in each run was obtained. Rate of inhibition (%)={1−(Z−Y)/(X−Y)}×100

olfactory receptor OR5K1 [2] = molecular target: T1, olfactory receptor OR5K1; experiment: Luciferase reporter gene assay, response of olfactory receptor to Furaneol; format: cell-based
Source text: On the basis of sequence information registered in GenBank, each human olfactory receptor gene was cloned by PCR with Human Genomic DNA Female (G1521: Promega Corp.) as a template. Each gene thus amplified by PCR was inserted into a pENTR vector (Invitrogen Corp.) according to the manual. A NotI-AscI site present on the pENTR vector was recombined into a NotI-AscI site prepared downstream of a Flag-Rho tag sequence on a pME18S vector.
A gene (GenBank GI: 50234917) encoding a human receptor transporting protein, RTP1S was inserted into the EcoRI-XhoI site of the pME18S vector.
HEK293 cells expressing each of 400 types of human olfactory receptors were prepared. […]
The olfactory receptors expressed on the HEK293 cells are conjugated with intracellular Gas to activate adenylate cyclase, thereby increasing intracellular cAMP levels. In this study, their responses to Furaneol were measured using luciferase reporter gene assay which involved monitoring increase in intracellular cAMP level as luminescence intensity derived from a firefly luciferase gene (fluc2P-CRE-hygro). […]
A medium was removed from the cultures prepared in the preceding paragraph 3). […] The luciferase activity was measured using Dual-Glo™ luciferase assay system (Promega Corp.) according to the instruction manual of the product. […]

Q: With `CC(=O)O[C@]1(C)CC[C@@]23C[C@@H]1C(C)(C)[C@@H]2CC[C@H]3C` [Cedryl acetate] as the compound, how does the inhibition at 100 µM (olfactory receptor OR5K1 [1]) read?
A: Its inhibition at 100 µM is no less than 50%.

Q: `CC(C)=CCCC(C)=CC=O` [Citral] was tested. Which inhibition at 100 µM (olfactory receptor OR5K1 [1]) did it give?
A: Its inhibition at 100 µM is no less than 75%.

Q: `CC1=C(O)C(=O)C(C)O1` (centres unmarked) [Furaneol, 2,5-dimethyl-4-hydroxy-3(2H)-furanone] was tested. Which “Concentration dependence of OR5K1 response to Furaneol” value (olfactory receptor OR5K1 [2]; Furaneol 0, 3, 10, 30, 100, 300, 1000, 3000 μM, OR5K1 with human RTP1S in HEK293 cells) did it give?
A: The value was “concentration-dependent response”.

Q: And the “Response of olfactory receptors to Furaneol (fold increase in luminescence)” value (olfactory receptor OR5K1 [2]; Furaneol 3 mM, 400 types of human olfactory receptors in HEK293 cells)?
A: Its value is “only the olfactory receptor OR5K1 exhibited a response”.

Q: How did the inhibition at 100 µM (olfactory receptor OR5K1 [1]) turn out when `CC(=O)c1cc2c(cc1C)C(C)(C)C(C)CC2(C)C` [Tonalid(R), 1-(5,6,7,8-tetrahydro-3,5,5,6,8,8-hexamethyl-2-naphthalenyl)-ethanone] was run?
A: Its inhibition at 100 µM is no less than 75%.
